Experimental data as given in US8802597B2, “Herbicidal pyrimidines” (E I du Pont de Nemours and Company, priority 2003, dated 2014).
Like-named read-outs stand apart in the source and are kept apart here.

Experiments:
Type in all cases: in vivo
[1] = system: Surinam grass (Brachiaria decumbens); assay: Test B pre/postemergence; conditions: Urochloa decumbens; for pest or weed control at 125 g/ha: 125 g ai/ha; for pest or weed control at 500 g/ha: 500 g ai/ha
In short: (§1)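 Compounds in non-phytotoxic solvent with surfactant applied preemergence to planted seeds or postemergence to plants 2 to 18 cm tall (1- to 4-leaf stage). Greenhouse 13 to 15 days, then visual rating against controls on a 0 to 100 scale (100 = complete control).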

[2] = system: barnyardgrass (Echinochloa crus-galli); assay: Test B pre/postemergence; conditions: Echinochloa crus-galli; for pest or weed control at 125 g/ha: 125 g ai/ha; for pest or weed control at 500 g/ha: 500 g ai/ha
In short: as §1

[3] = system: cocklebur (Xanthium strumarium); assay: Test B pre/postemergence; conditions: Xanthium strumarium; for pest or weed control at 125 g/ha: 125 g ai/ha; for pest or weed control at 500 g/ha: 500 g ai/ha
In short: as §1

corn (Zea mays) = assay: Test B pre/postemergence; conditions: Zea mays
In short: as §1

[4] = system: crabgrass (Digitaria sanguinalis); assay: Test B pre/postemergence; conditions: Digitaria sanguinalis; for pest or weed control at 125 g/ha: 125 g ai/ha; for pest or weed control at 500 g/ha: 500 g ai/ha
In short: as §1

[5] = system: giant foxtail (Setaria faberii); assay: Test B pre/postemergence; conditions: Setaria faberi; for pest or weed control at 125 g/ha: 125 g ai/ha; for pest or weed control at 500 g/ha: 500 g ai/ha
In short: as §1

[6] = system: lambsquarters (Chenopodium album); assay: Test B pre/postemergence; conditions: Chenopodium album; for pest or weed control at 125 g/ha: 125 g ai/ha; for pest or weed control at 500 g/ha: 500 g ai/ha
In short: as §1

[7] = system: morningglory (Ipomoea coccinea); assay: Test B pre/postemergence; conditions: Ipomoea; for pest or weed control at 125 g/ha: 125 g ai/ha; for pest or weed control at 500 g/ha: 500 g ai/ha
In short: as §1

[8] = system: pigweed (Amaranthus retroflexus); assay: Test B pre/postemergence; conditions: Amaranthus retroflexus; for pest or weed control at 125 g/ha: 125 g ai/ha; for pest or weed control at 500 g/ha: 500 g ai/ha
In short: as §1

[9] = system: velvetleaf (Abutilon theophrasti); assay: Test B pre/postemergence; conditions: Abutilon theophrasti; for pest or weed control at 125 g/ha: 125 g ai/ha; for pest or weed control at 500 g/ha: 500 g ai/ha
In short: as §1

[10] = system: wheat (Triticum aestivum); assay: Test B pre/postemergence; conditions: Triticum aestivum; for plant injury at 500 g/ha: 500 g ai/ha
In short: as §1

[11] = system: blackgrass (Alopecurus myosuroides); assay: Test B postemergence; conditions: Alopecurus myosuroides, post-emergence
In short: as §1

wild oat (Avena fatua) = assay: Test B postemergence; conditions: Avena fatua, post-emergence
In short: as §1

[12] = system: barnyardgrass (Echinochloa crus-galli); assay: Test B flooded paddy test; conditions: Echinochloa crus-galli, Flood, 1000 g ai/ha; scale 0 (no effect) to 100 (complete control); read-out: Plant response rating, Barnyardgrass
In short: (§2)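 Plants were grown to the 2-leaf stage before treatment, then kept in a greenhouse for 13 to 15 days. Injury was rated visually against untreated controls on a 0 to 100 scale, where 0 is no effect and 100 is complete control.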

[13] = system: duck salad (Heteranthera limosa); assay: Test B flooded paddy test; conditions: Heteranthera limosa, Flood, 1000 g ai/ha; scale 0 to 100; read-out: Plant response rating, Ducksalad
In short: as §2

rice (Oryza sativa) = assay: Test B flooded paddy test; conditions: Oryza sativa, Flood, 1000 g ai/ha; scale 0 to 100; read-out: Plant response rating, Rice
In short: as §2

[14] = system: umbrella sedge (Cyperus difformis); assay: Test B flooded paddy test; conditions: Cyperus difformis, Flood, 1000 g ai/ha; scale 0 to 100; read-out: Plant response rating, Sedge, Umbrella
In short: as §2

## CNc1nc(C2CC2)nc(C(=O)OC)c1Br [Compound 5]
[1]; post-emergence, Postemergence, scale 0 to 100 (0 no effect, 100 complete control), read-out: Surinam Grass plant response rating
  pest or weed control at 125 g/ha: 50%
[1]; post-emergence, Postemergence, scale 0 to 100, read-out: Plant response rating, Surinam Grass
  pest or weed control at 500 g/ha: 80%
[1]; pre-emergence, Preemergence, scale 0 to 100 (0 no effect, 100 complete control), read-out: Plant response rating, Surinam Grass
  pest or weed control at 125 g/ha: 0%
[1]; pre-emergence, Preemergence, scale 0 to 100 (0 no effect, 100 complete control), read-out: Surinam Grass plant response rating
  pest or weed control at 500 g/ha: 10%
[2]; post-emergence, Postemergence, scale 0 to 100 (0 no effect, 100 complete control), read-out: Barnyardgrass plant response rating
  pest or weed control at 125 g/ha: 50%
[2]; post-emergence, Postemergence, scale 0 to 100, read-out: Plant response rating, Barnyardgrass
  pest or weed control at 500 g/ha: 90%
[2]; pre-emergence, Preemergence, scale 0 to 100 (0 no effect, 100 complete control), read-out: Plant response rating, Barnyardgrass
  pest or weed control at 125 g/ha: 10%
[2]; pre-emergence, Preemergence, scale 0 to 100 (0 no effect, 100 complete control), read-out: Barnyardgrass plant response rating
  pest or weed control at 500 g/ha: 30%
[3]; post-emergence, Postemergence, scale 0 to 100 (0 no effect, 100 complete control), read-out: Cocklebur plant response rating
  pest or weed control at 125 g/ha: 80%
[3]; post-emergence, Postemergence, scale 0 to 100, read-out: Plant response rating, Cocklebur
  pest or weed control at 500 g/ha: 100%
[3]; pre-emergence, Preemergence, scale 0 to 100 (0 no effect, 100 complete control), read-out: Plant response rating, Cocklebur
  pest or weed control at 125 g/ha: 70%
[3]; pre-emergence, Preemergence, scale 0 to 100 (0 no effect, 100 complete control), read-out: Cocklebur plant response rating
  pest or weed control at 500 g/ha: 80%
Corn (Zea mays); post-emergence, Postemergence, 125 g ai/ha, scale 0 to 100 (0 no effect, 100 complete control), read-out: Corn plant response rating
  plant injury at 125 g/ha: 30%
Corn (Zea mays); post-emergence, Postemergence, 500 g ai/ha, scale 0 to 100
  Corn plant response rating (crop injury, 0 = no effect, 100 = complete kill) at 500 g/ha: 90%
Corn (Zea mays); pre-emergence, Preemergence, 125 g ai/ha, scale 0 to 100 (0 no effect, 100 complete control)
  Corn plant response rating (crop injury, 0 = no effect, 100 = complete kill) at 125 g/ha: 0%
Corn (Zea mays); pre-emergence, Preemergence, 500 g ai/ha, scale 0 to 100 (0 no effect, 100 complete control), read-out: Corn plant response rating
  plant injury at 500 g/ha: 70%
[4]; post-emergence, Postemergence, scale 0 to 100 (0 no effect, 100 complete control), read-out: Crabgrass plant response rating
  pest or weed control at 125 g/ha: 50%
[4]; post-emergence, Postemergence, scale 0 to 100, read-out: Plant response rating, Crabgrass
  pest or weed control at 500 g/ha: 90%
[4]; pre-emergence, Preemergence, scale 0 to 100 (0 no effect, 100 complete control), read-out: Plant response rating, Crabgrass
  pest or weed control at 125 g/ha: 20%
[4]; pre-emergence, Preemergence, scale 0 to 100 (0 no effect, 100 complete control), read-out: Crabgrass plant response rating
  pest or weed control at 500 g/ha: 70%
[5]; post-emergence, Postemergence, scale 0 to 100 (0 no effect, 100 complete control), read-out: Foxtail, Giant plant response rating
  pest or weed control at 125 g/ha: 40%
[5]; post-emergence, Postemergence, scale 0 to 100, read-out: Plant response rating, Foxtail, Giant
  pest or weed control at 500 g/ha: 50%
[5]; pre-emergence, Preemergence, scale 0 to 100 (0 no effect, 100 complete control), read-out: Plant response rating, Foxtail, Giant
  pest or weed control at 125 g/ha: 0%
[5]; pre-emergence, Preemergence, scale 0 to 100 (0 no effect, 100 complete control), read-out: Foxtail, Giant plant response rating
  pest or weed control at 500 g/ha: 10%
[6]; post-emergence, Postemergence, scale 0 to 100 (0 no effect, 100 complete control), read-out: Lambsquarters plant response rating
  pest or weed control at 125 g/ha: 100%
[6]; post-emergence, Postemergence, scale 0 to 100, read-out: Plant response rating, Lambsquarters
  pest or weed control at 500 g/ha: 100%
[6]; pre-emergence, Preemergence, scale 0 to 100 (0 no effect, 100 complete control), read-out: Plant response rating, Lambsquarters
  pest or weed control at 125 g/ha: 90%
[6]; pre-emergence, Preemergence, scale 0 to 100 (0 no effect, 100 complete control), read-out: Lambsquarters plant response rating
  pest or weed control at 500 g/ha: 100%
[7]; post-emergence, Postemergence, scale 0 to 100 (0 no effect, 100 complete control), read-out: Morningglory plant response rating
  pest or weed control at 125 g/ha: 100%
[7]; post-emergence, Postemergence, scale 0 to 100, read-out: Plant response rating, Morningglory
  pest or weed control at 500 g/ha: 100%
[7]; pre-emergence, Preemergence, scale 0 to 100 (0 no effect, 100 complete control), read-out: Plant response rating, Morningglory
  pest or weed control at 125 g/ha: 70%
[7]; pre-emergence, Preemergence, scale 0 to 100 (0 no effect, 100 complete control), read-out: Morningglory plant response rating
  pest or weed control at 500 g/ha: 80%
[8]; post-emergence, Postemergence, scale 0 to 100 (0 no effect, 100 complete control), read-out: Pigweed plant response rating
  pest or weed control at 125 g/ha: 90%
[8]; post-emergence, Postemergence, scale 0 to 100, read-out: Plant response rating, Pigweed
  pest or weed control at 500 g/ha: 100%
[8]; pre-emergence, Preemergence, scale 0 to 100 (0 no effect, 100 complete control), read-out: Plant response rating, Pigweed
  pest or weed control at 125 g/ha: 90%
[8]; pre-emergence, Preemergence, scale 0 to 100 (0 no effect, 100 complete control), read-out: Pigweed plant response rating
  pest or weed control at 500 g/ha: 90%
[9]; post-emergence, Postemergence, scale 0 to 100 (0 no effect, 100 complete control), read-out: Velvetleaf plant response rating
  pest or weed control at 125 g/ha: 70%
[9]; post-emergence, Postemergence, scale 0 to 100, read-out: Plant response rating, Velvetleaf
  pest or weed control at 500 g/ha: 90%
[9]; pre-emergence, Preemergence, scale 0 to 100 (0 no effect, 100 complete control), read-out: Plant response rating, Velvetleaf
  pest or weed control at 125 g/ha: 70%
[9]; pre-emergence, Preemergence, scale 0 to 100 (0 no effect, 100 complete control), read-out: Velvetleaf plant response rating
  pest or weed control at 500 g/ha: 90%
[10]; post-emergence, Postemergence, 125 g ai/ha, scale 0 to 100 (0 no effect, 100 complete control), read-out: Wheat plant response rating
  plant injury at 125 g/ha: 50%
[10]; post-emergence, Postemergence, scale 0 to 100, read-out: Plant response rating, Wheat
  plant injury at 500 g/ha: 60%
[10]; pre-emergence, Preemergence, scale 0 to 100 (0 no effect, 100 complete control), read-out: Wheat plant response rating
  plant injury at 500 g/ha: 50%
[11]; 125 g ai/ha, scale 0 to 100 (0 no effect, 100 complete control), read-out: Blackgrass plant response rating
  pest or weed control at 125 g/ha: 70%
[11]; 500 g ai/ha, scale 0 to 100, read-out: Plant response rating, Blackgrass
  pest or weed control at 500 g/ha: 80%
Wild oat (Avena fatua); 125 g ai/ha, scale 0 to 100 (0 no effect, 100 complete control), read-out: Oat, Wild plant response rating
  pest or weed control at 125 g/ha: 40%
Wild oat (Avena fatua); 500 g ai/ha, scale 0 to 100, read-out: Plant response rating, Oat, Wild
  pest or weed control at 500 g/ha: 60%
[12]
  pest or weed control at 1000 g/ha: 50%
[13]
  pest or weed control at 1000 g/ha: 90%
Rice (Oryza sativa)
  plant injury at 1000 g/ha: 0%
[14]
  pest or weed control at 1000 g/ha: 90%
